The source of these data is US7452908B2, “Amide derivatives” (Banyu Pharmaceutical Co., Ltd., priority 1999, dated 2008).

Assay [1] addresses T1, airway M3 receptor in isolated rat trachea (Rattus norvegicus, UniProt P08483).
T1 construct: from tissue; host or cells: trachea of male SD rats
In words: Antagonism to the airway M3 receptor in isolated rat trachea (carbachol-induced contraction). The format is cell-based. The conditions noted are these: for Kb: isolated rat trachea, shift of carbachol dose-response curve; for Selectivity M2/M3: ratio of KB right atrium M2 to KB trachea M3. Here is the method:
The test was performed according to a conventional method. Male SD strain rats (weighing 300-500 g) were killed by exsanguination, and from each of them the trachea was isolated. Annular segments (2 mm wide) were cut out from the trachea and cut transversely at the anterior cartilage part to make open ring preparation. Each preparation was suspended in a Magnus tube filled with 5 ml of Krebs-Henseleit solution (gassed with 95% O2-5% CO2 and kept at 32° C.) with an initial tension of 1.0 g and a resting tension of 0.6 g. The tension of the preparation was recorded isometrically. After being equilibrated for an hour, the preparation was made to contract twice by treatment with 10^−4 M carbachol, and the second contraction induced by carbachol was used as the reference contraction. After washing the preparation with fresh solution to restore it to the base line, a test compound was administered thereto (or no treatment was given). Ten minutes later, carbachol (10^−8 to 10^−3 M) was cumulatively administered in three-fold increasing doses to obtain a dose-response curve. The dose-responsecurve was plotted by expressing responses as percentages based on the reference contraction of the preparation as 100%. The antagonistic potency (KB value) of the test compound was determined from the degree of shift of the dose-responsecurve attributable to the treatment with the test compound.

Assay [2] has as its target T2, human m4 muscarinic acetylcholine receptor expressed in CHO cells (Homo sapiens, UniProt P08173).
T2 construct: purchased Receptor Biology, Inc; host or cells: CHO cells
T2 sequence (P08173 1-479): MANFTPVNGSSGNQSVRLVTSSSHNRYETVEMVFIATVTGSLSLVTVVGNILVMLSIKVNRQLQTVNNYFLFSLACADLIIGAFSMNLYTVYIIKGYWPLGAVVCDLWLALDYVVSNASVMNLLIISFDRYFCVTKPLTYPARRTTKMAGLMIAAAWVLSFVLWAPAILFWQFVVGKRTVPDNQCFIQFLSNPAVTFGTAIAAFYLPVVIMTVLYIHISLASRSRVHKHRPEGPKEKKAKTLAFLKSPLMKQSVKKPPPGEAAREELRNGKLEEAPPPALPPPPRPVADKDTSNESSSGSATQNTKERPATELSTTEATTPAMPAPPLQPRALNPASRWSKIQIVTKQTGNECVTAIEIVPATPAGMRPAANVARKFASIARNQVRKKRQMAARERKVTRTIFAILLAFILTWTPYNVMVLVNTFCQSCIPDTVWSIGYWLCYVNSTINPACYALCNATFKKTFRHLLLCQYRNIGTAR
In words: Inhibition of [3H]-N-methylscopolamine binding to muscarinic m4 receptor. The conditions noted are these: 0.2 nM [3H]-N-methylscopolamine. As to the method:
(§1) These tests were performed according to a modification of the method of Hargreaves, et al. (Br. J. Pharmacol. 107: 494-501, 1992). Namely, muscarinic acetylcholine receptors of human m1, m2, m3, m4 and m5 expressed in CHO cells (Receptor Biology, Inc.) were incubated with 0.2 nM [^3H]-N-methylscopolamine (82Ci/mmol, New England Nuclear, Inc.) and a test compound to be tested in 0.5 ml of 50 mM Tris-HCl, 10 mM MgCl2, 1 mM EDTA solution (pH 7.4) for 120 minutes at room temperature (about 20-25° C.), followed by suction filtration over a glass filter (UniFilter plate-GF/C; Packard). Then the filter was washed four times with 1 ml of ice-cold Tris-HCl buffer and dried at 50° C. for an hour. After adding a scintillator (Microscinti 0; Packard), the radioactivity of [^3H]-N-methylscopolamine binding to the filter was counted with a microplate scintillation counter (TopCount™; Packard). Non-specific receptor binding of [^3H]-N-methylscopolamine was measured by adding 1 μM N-methylscopolamine.

In assay [3] the target is T3, human m1 muscarinic acetylcholine receptor expressed in CHO cells (Homo sapiens, UniProt P11229).
T3 construct: purchased Receptor Biology, Inc; host or cells: CHO cells
T3 sequence (P11229 1-460): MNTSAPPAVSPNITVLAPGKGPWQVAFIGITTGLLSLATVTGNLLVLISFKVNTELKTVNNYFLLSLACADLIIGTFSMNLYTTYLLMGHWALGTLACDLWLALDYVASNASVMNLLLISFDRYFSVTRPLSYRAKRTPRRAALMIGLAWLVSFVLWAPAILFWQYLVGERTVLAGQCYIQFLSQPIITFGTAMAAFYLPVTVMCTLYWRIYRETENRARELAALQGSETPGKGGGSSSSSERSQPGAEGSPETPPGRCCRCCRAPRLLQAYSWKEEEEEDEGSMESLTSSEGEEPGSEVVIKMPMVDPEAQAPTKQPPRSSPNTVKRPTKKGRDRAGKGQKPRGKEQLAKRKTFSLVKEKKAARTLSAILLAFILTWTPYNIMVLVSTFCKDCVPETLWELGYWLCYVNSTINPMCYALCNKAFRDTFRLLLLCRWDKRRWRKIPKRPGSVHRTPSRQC
Description: Inhibition of [3H]-N-methylscopolamine binding to muscarinic m1 receptor. The following applies: 0.2 nM [3H]-N-methylscopolamine. As to the method:
as §1

The target of the next assay is T4, M3 receptor (Canis lupus familiaris, UniProt A0A8I3N190).
T4 construct: from tissue; host or cells: whole animal, male beagle dogs (in vivo, airway)
T4 sequence (A0A8I3N190 1-590): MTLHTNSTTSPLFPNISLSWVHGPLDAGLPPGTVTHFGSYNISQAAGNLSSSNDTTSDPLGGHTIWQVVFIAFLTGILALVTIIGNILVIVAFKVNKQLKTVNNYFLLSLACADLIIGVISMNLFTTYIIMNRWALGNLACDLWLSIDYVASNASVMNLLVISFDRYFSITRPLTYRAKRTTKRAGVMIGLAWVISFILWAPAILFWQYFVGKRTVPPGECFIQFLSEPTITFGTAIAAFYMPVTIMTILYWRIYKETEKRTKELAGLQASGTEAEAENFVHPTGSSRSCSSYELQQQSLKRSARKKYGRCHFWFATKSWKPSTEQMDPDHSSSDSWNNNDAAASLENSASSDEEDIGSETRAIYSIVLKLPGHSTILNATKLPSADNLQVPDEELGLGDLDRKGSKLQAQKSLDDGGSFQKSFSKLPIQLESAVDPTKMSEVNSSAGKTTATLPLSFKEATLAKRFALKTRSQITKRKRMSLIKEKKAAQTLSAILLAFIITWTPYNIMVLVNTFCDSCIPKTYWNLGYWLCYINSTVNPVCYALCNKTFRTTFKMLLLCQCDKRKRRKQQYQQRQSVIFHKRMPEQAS
Description: Antagonism to M3 receptor: bronchodilation in anesthetized dogs (methacholine provocation test). The format is in vivo, beagle dogs. The conditions noted are these: inhalation of 1 mg/ml for 10 minutes, methacholine threshold four hours after administration. As to the method:
The bronchodilation action of inhaled test compound was evaluated by measuring the compounds' inhibitory action on respiratory resistance-increasing reaction induced by a methacholine provocation test. For the experiment, 12 to 36 months old male beagle dogs (weighing 10-15 kg) were used. After being anesthetized by intravenous pentobarbital administration (30 mg/kg), the dogs were intubated cannulae in their trachea. After their respiration became stable, the cannulae were connected with Astograph (TCK-6100H, Chest) and a methacholine provocation test by 3 Hz oscillation method was conducted. […] The methacholine concentration at which the respiratory resistance increased to twice the initial value was recorded as the methacholine reaction threshold value. Before evaluating the test compounds, the methacholine reaction threshold value^1) under no drug treatment was measured at least twice at a week's interval, to select the dogs showing reproducible reaction.
The inhaling administration of each test compound (1 mg/ml) was conducted for 10 minutes under pentobarbital anesthetization (30 mg/kg, i.v.), with the nebulizer in the Astograph. […] The bronchodilator activity (shift value) of each tested compound was determined according to the following equation: […]

T1 sequence (P08483 whole entry): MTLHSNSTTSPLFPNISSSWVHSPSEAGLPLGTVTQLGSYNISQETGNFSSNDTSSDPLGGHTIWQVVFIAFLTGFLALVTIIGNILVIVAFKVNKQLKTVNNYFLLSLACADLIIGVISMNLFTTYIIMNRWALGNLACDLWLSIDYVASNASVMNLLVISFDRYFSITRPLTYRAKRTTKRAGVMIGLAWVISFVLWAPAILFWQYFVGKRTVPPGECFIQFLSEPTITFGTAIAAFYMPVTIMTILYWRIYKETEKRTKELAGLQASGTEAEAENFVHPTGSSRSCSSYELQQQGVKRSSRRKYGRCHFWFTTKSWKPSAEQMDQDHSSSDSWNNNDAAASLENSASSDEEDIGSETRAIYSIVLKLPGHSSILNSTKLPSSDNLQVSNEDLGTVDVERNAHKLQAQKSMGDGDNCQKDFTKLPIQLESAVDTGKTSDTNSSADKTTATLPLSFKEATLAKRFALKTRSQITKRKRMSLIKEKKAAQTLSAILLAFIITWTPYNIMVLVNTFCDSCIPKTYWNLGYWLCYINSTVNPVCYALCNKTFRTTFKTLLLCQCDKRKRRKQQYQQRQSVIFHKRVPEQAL

Broadly, the Kb is the equilibrium dissociation constant of an antagonist, usually derived from a functional assay. The Ki is a measure of affinity in units of concentration, obtained from inhibition or displacement. As for `O=C(CCNC(=O)CNC(=O)CC(c1ccccc1)(c1ccccc1)c1ccccc1)NC[C@H]1CCCN(CC2CCCCC2)C1` [Example 12, N-{2-(3-{((3R)-1-cyclohexylmethyl-3-piperidyl)methyl}amino-3-oxopropyl)amino-2-oxoethyl}-3,3,3-triphenyloropanamide], in assay [1], the antagonist equilibrium constant (Kb) is 2.3 nM. Moreover, the “Selectivity M2/M3” value in assay [1] was determined as 70 times. Moreover, the Ki is 18 nM in assay [2] and 140 nM in assay [3].
`CC[N+]1(CC)CCC[C@H](CNC(=O)[C@H]2CCCN2C(=O)[C@@H]2C[C@@H](O)CN2C(=O)CC(c2ccccc2)(c2ccccc2)c2ccccc2)C1.[Cl-]` [Example 133, (3R)-1,1-diethyl-3-({({(2R)-1-({(2S,4R)-4-hydroxy-1-(3,3,3-triphenylpropanoyl)-2-pyrrolidinyl}carbonyl)-2-pyrrolidinyl}carbonyl)amino}methyl)piperidinium chloride]: the “Shift (fold) Airway constriction M3” value on M3 receptor came out at 20.2 fold. For the same compound, in assay [1], the Kb came to 0.71 nM. Further, in assay [1], the “Selectivity M2/M3” value came out at 58 times. Besides, the figures for the Ki in assay [2] and in assay [3] were 140 nM and greater than 2500 nM, respectively.
